The values below come from publication PMC7567103 (Nature Communications, 2020).

Molecules are shown by their SMILES.

One assay addresses T1, GHRHR D193A (Homo sapiens, UniProt Q02643, D193A).
T1 construct: GHRHR(23-423)-; HA signal peptide (replaces native signal M1-G22) (N); expressed in transfected cells; host or cells: HEK 293T, pcDNA3.1, transient
Nature of the assay: cAMP accumulation, D193A. It is filed as cell-based. The following applies: mean ± SEM, n ≥ 3. From the text: (§1) Fig. 2 Molecular recognition of GHRH by GHRHR and comparison of that with LA-PTH–PTH1R and GLP-1–GLP-1R. a Detailed interaction between GHRH and the TMD pocket of GHRHR with hydrogen bonds shown as dotted lines. b, c Pairwise comparison of GHRH bound to GHRHR with GLP-1 and LA-PTH in complex with their corresponding receptors, showing the relative positions of peptide ligands. Lime green, GHRHR; blue, GHRH; red, PTH1R and LA-PTH; purple, GLP-1R and GLP-1. d–f The effects of mutation in the ligand-binding pocket on cAMP accumulation. cAMP levels were measured in wild-type (WT) receptor and alanine mutants in ECL1, 2, and 3 (d), TM1, 2, and 3 (e), and TM5, 6, and 7 (f). cAMP signals were normalized to the maximum response of WT and concentration–response curves were analyzed using a three-parameter logistic equation. Data shown are means ± S.E.M. of at least three independent experiments (n = 3–5), conducted in triplicate. Source data are provided as a Source data file.
(§2) GHRH-stimulated cAMP accumulation was measured by a LANCE Ultra cAMP kit (PerkinElmer). […] After 1 h RT incubation, TR-FRET signals (excitation: 320 nm, emission: 615 and 665 nm) were measured by an EnVision (PerkinElmer).

The next assay addresses T2, GHRHR R357A (Homo sapiens, UniProt Q02643, R357A).
T2 construct: GHRHR(23-423)-; HA signal peptide (replaces native signal M1-G22) (N); expressed in transfected cells; host or cells: HEK 293 T
In words: cAMP accumulation, R357A. It is filed as cell-based. The following applies: mean ± SEM, n ≥ 3.
Text: as §1, §2
Background: Changes in cAMP serve as a functional read-out for many G protein-coupled receptors.

T1 sequence (Q02643 23-423 D193A): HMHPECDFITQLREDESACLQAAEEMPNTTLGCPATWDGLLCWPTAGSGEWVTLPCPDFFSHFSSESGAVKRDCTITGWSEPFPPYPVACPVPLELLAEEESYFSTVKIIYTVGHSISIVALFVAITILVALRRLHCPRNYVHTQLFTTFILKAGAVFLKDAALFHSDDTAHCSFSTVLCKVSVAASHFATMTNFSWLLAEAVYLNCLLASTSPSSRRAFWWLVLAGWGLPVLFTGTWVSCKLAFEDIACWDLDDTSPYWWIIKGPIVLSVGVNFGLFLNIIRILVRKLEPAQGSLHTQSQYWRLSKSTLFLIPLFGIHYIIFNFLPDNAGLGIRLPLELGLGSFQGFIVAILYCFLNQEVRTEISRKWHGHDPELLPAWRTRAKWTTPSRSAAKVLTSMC
T2 sequence (Q02643 23-423 R357A): as the sequence (Q02643 23-423 D193A) above, with A171D, R335A counted along it

As usually defined, the EC50 is the concentration needed to bring the measured effect to its halfway point. The low end stands for higher potency in that assay, the high end for lower potency in that assay. At GHRHR D193A, `CC[C@H](C)[C@H](NC(=O)[C@H](C)NC(=O)[C@H](CC(=O)O)NC(=O)[C@H](C)NC(=O)[C@@H](N)Cc1ccc(O)cc1)C(=O)N[C@@H](Cc1ccccc1)C(=O)N[C@H](C(=O)N[C@@H](CC(N)=O)C(=O)N[C@@H](CO)C(=O)N[C@@H](Cc1ccc(O)cc1)C(=O)N[C@@H](CCCNC(=N)N)C(=O)N[C@@H](CCCCN)C(=O)N[C@H](C(=O)N[C@@H](CC(C)C)C(=O)NCC(=O)N[C@@H](CCC(N)=O)C(=O)N[C@@H](CC(C)C)C(=O)N[C@@H](CO)C(=O)N[C@@H](C)C(=O)N[C@@H](CCCNC(=N)N)C(=O)N[C@@H](CCCCN)C(=O)N[C@@H](CC(C)C)C(=O)N[C@@H](CC(C)C)C(=O)N[C@@H](CCC(N)=O)C(=O)N[C@@H](CC(=O)O)C(=O)N[C@H](C(=O)N[C@@H](CCSC)C(=O)N[C@@H](CO)C(=O)N[C@@H](CCCNC(=N)N)C(=O)N[C@@H](CCC(N)=O)C(=O)N[C@@H](CCC(N)=O)C(=O)NCC(=O)N[C@@H](CCC(=O)O)C(=O)N[C@@H](CO)C(=O)N[C@@H](CC(N)=O)C(=O)N[C@@H](CCC(N)=O)C(=O)N[C@@H](CCC(=O)O)C(=O)N[C@@H](CCCNC(=N)N)C(=O)NCC(=O)N[C@@H](C)C(=O)N[C@@H](CCCNC(=N)N)C(=O)N[C@@H](C)C(=O)N[C@@H](CCCNC(=N)N)C(=O)N[C@@H](CC(C)C)C(N)=O)[C@@H](C)CC)C(C)C)[C@@H](C)O` [GHRH, Growth hormone-releasing hormone] gave an EC50 of 0.115 nM and an Emax of 101.42±1.02 % WT. At GHRHR R357A, this compound showed an EC50 of 135 nM and an Emax of 60.05±5.19 % WT.
